Where two headings read alike, the source gives them in different places.
What was measured:
GABAAR [1] = conditions: 3H-flunitrazepam, rat brain extract; for IC50: read-out: GABAAR binding IC50
in vitro = conditions: PAMPA, pH 7.4
female A/J mice = test: Methacholine-induced airway hyperresponsiveness, double chamber plethysmograph; assay type: in vivo, mouse; conditions: nebulized 7.2 mg/kg, then five nebulized methacholine challenges, vs vehicle
[2] = tested on: guinea pig airway smooth muscle; test: Ex vivo airway smooth muscle relaxation, substance P-contracted tracheal rings; conditions: 25 μM, vs vehicle
GABAAR [3] = conditions: read-out: GABAAR binding IC50; reported earlier; cited from earlier work
[4] = Microsomal stability phase 1; assay type: in vitro ADME; conditions: mouse liver S9, NADPH, 10 μM compound
[5] = Metabolic stability phase 2; assay type: in vitro ADME; conditions: mouse liver S9, UDP-glucuronic acid, 10 μM compound
[6] = Microsomal stability phase 1; assay type: in vitro ADME; conditions: human liver S9, NADPH, 10 μM compound
[7] = Metabolic stability phase 2; assay type: in vitro ADME; conditions: human liver S9, UDP-glucuronic acid, 10 μM compound
[8] = cited from earlier work
[9] = tested on: female Swiss Webster mice; conditions: oral dosing up to 1000 mg/kg; cited from earlier work
[10] = tested on: female Swiss Webster mice; test: Rotarod sensorimotor inhibition; assay type: in vivo, mouse; conditions: diazepam 8 mg/kg

Row | Compound | IC50 (GABAAR [1]) [nM] | Papp (in vitro) [×10⁻⁶ cm/s] | GABAAR binding (in words) (GABAAR [1]) | further results
1 | CC1(C)N=C(c2ccccc2F)c2cc(Br)ccc2NC1=O [3a, 7-Bromo-5-(2-fluorophenyl)-3,3-dimethyl-1,3-dihydro-2H-benzo[e][1,4]diazepin-2-one] | 1250 | – | – | –
2 | O=C1Nc2ccc(Br)cc2C(c2ccccc2F)=NC12CC2 [3c] | 42 | – | – | –
3 | O=C1Nc2ccc(Br)cc2C(c2ccccc2F)=NC12CCC2 [3d] | 2040 | 3.16 | – | –
4 | O=C1Nc2ccc(Br)cc2C(c2ccccc2F)=NC12CCCC2 [3e] | – | 0.158 | no significant binding | –
5 | O=C1Nc2ccc(Br)cc2C(c2ccccc2F)=NC12CCCCC2 [3f] | – | 0.0794 | no significant binding | –
6 | O=C1Nc2ccc(Cl)cc2C(c2ccccc2F)=NC12CC2 [3g] | 665 | – | – | –
7 | CCOC(=O)c1ncn2c1C(C)(C)N=C(c1ccccc1F)c1cc(Br)ccc1-2 [4a] | 733 | – | Some activity was retained | –
8 | CCOC(=O)c1ncn2c1C1(CC1)N=C(c1ccccc1F)c1cc(Br)ccc1-2 [4c, Ethyl 8-bromo-6-(2-fluorophenyl)spiro[benzo[f]imidazo[1,5-α][1,4]diazepine-4,1′-cyclopropane]-3-carboxylate] | 87 | – | – | –
9 | CCOC(=O)c1ncn2c1C1(CCC1)N=C(c1ccccc1F)c1cc(Br)ccc1-2 [4d] | 859 | 6.31 | Some activity was retained | –
10 | CCOC(=O)c1ncn2c1C1(CCCC1)N=C(c1ccccc1F)c1cc(Br)ccc1-2 [4e] | – | 1.58 | not active | –
11 | CCOC(=O)c1ncn2c1C1(CCCCC1)N=C(c1ccccc1F)c1cc(Br)ccc1-2 [4f] | 6220 | 1 | not active | –
12 | CCOC(=O)c1ncn2c1C1(CC1)N=C(c1ccccc1F)c1cc(Cl)ccc1-2 [4g] | – | 2.51 | weak GABAAR ligands | –
13 | CCOC(=O)c1ncn2c1C1(CC1)N=C(c1ccccc1F)c1cc(C3CC3)ccc1-2 [4i, Ethyl 8-Cyclopropyl-6-(2-fluorophenyl)spiro-[benzo[f]imidazo[1,5-α][1,4]diazepine-4,1′-cyclopropane]-3-carboxylate] | – | 12.6 | – | –
14 | CC1(C)N=C(c2ccccc2F)c2cc(Br)ccc2-n2cnc(C(=O)O)c21 [5a] | 4050 | – | did not show strong GABAAR binding | effect on specific airway resistance (sRaw) (female A/J mice): little to no change of sRaw values
15 | O=C(O)c1ncn2c1C1(CC1)N=C(c1ccccc1F)c1cc(Br)ccc1-2 [5c, 8-Bromo-6-(2-fluorophenyl)-spiro[benzo[f]imidazo[1,5-α][1,4]diazepine-4,1′-cyclopropane]-3-carboxylic Acid] | 9 | – | – | relaxation of constricted airway smooth muscle ([2]; at 30 min): significant relaxation
16 | O=C(O)c1ncn2c1C1(CCC1)N=C(c1ccccc1F)c1cc(Br)ccc1-2 [5d] | 1830 | – | – | relaxation of constricted airway smooth muscle ([2]; at 60 min): weak airway smooth muscle relaxation
17 | O=C(O)c1ncn2c1C1(CCCCC1)N=C(c1ccccc1F)c1cc(Br)ccc1-2 [5f] | – | – | – | relaxation of constricted airway smooth muscle ([2]; at 30 min): significant relaxation
18 | O=C(O)c1ncn2c1C1(CC1)N=C(c1ccccc1F)c1cc(Cl)ccc1-2 [5g] | – | – | weak GABAAR ligands | –
19 | C#Cc1ccc2c(c1)C(c1ccccc1F)=NC1(CC1)c1c(C(=O)O)ncn1-2 [5h, 8-Ethynyl-6-(2-fluorophenyl)spiro[benzo[f]-imidazo[1,5-α][1,4]diazepine-4,1′-cyclopropane]-3-carboxylic Acid] | 59 | – | – | relaxation of constricted airway smooth muscle ([2]; at 30 min): significant relaxation
20 | O=C(O)c1ncn2c1C1(CC1)N=C(c1ccccc1F)c1cc(C3CC3)ccc1-2 [5i] | 1830 | – | weak GABAAR ligands | –
21 | O=C(O)c1ncn2c1C1(CC1)N=C(c1ccccc1F)c1ccccc1-2 [5j, 6-(2-Fluorophenyl)spiro[benzo[f]imidazo[1,5-α][1,4]diazepine-4,1′-cyclopropane]-3-carboxylic Acid] | 289 | – | – | relaxation of constricted airway smooth muscle ([2]; at 30 min): significant relaxation
22 | C[C@@H]1N=C(c2ccccc2F)c2cc(Br)ccc2-n2cnc(C(=O)O)c21 [MIDD0301S] | – | – | – | IC50 (GABAAR [3]): 25 nM
23 | C[C@H]1N=C(c2ccccc2F)c2cc(Br)ccc2-n2cnc(C(=O)O)c21 [MIDD0301] | – | – | – | remaining percentage of parent compound after 2 h, phase 1 [4]: 110 ± 14%; remaining percentage of parent compound after 2 h, phase 2 [5]: 73 ± 8%; remaining percentage of parent compound after 2 h, phase 1 [6]: 98 ± 4%; remaining percentage of parent compound after 2 h, phase 2 [7]: 77 ± 3%; aqueous solubility (in words) ([8]; pH values between 3 and 6): significantly decreased; aqueous solubility (in words) ([8]; strong acidic, neutral and basic conditions): excellent solubility; IC50 (GABAAR [3]): 26 nM; sensorimotor inhibition on rotarod [9]: absence of sensorimotor inhibition
24 | CN1C(=O)CN=C(c2ccccc2)c2cc(Cl)ccc21 [diazepam] | – | – | – | sensorimotor inhibition on rotarod [10]: rapid and significant loss of sensorimotor coordination

— PMC10833105 (Journal of medicinal chemistry, 2023)
